# Assay results from patent US8063225B2, “Tricyclic compound derivatives useful in the treatment of neoplastic diseases, inflammatory disorders and immunomodulatory disorders” (Chembridge Corporation, priority 2006, dated 2011).
# Experiments:
# Alk = biological target: T1, Alk (Homo sapiens, UniProt Q9UM73); assay: Tyrosine kinase assay (Kinase-Glo or AlphaScreen), Alk; settings: biochemical tyrosine kinase assay
# T1 construct: 6×His- or GST-tagged kinase domain fragments of the corresponding RTKs expressed in baculovirus system; host or cells: baculovirus system
# T1 sequence (Q9UM73 1116-1392 limits assumed, species assumed): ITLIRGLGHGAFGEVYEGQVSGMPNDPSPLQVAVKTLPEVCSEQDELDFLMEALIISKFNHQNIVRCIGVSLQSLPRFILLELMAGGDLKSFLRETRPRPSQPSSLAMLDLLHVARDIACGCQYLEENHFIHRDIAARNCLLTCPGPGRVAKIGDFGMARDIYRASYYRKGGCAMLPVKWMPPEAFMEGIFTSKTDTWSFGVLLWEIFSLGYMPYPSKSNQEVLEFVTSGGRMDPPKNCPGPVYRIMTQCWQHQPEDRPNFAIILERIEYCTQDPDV
# Outline: (§1)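 Luminescence of remaining ATP (Kinase-Glo) or anti-phosphotyrosine AlphaScreen proximity signal served as read-out. Reactions held purified tagged kinase domain, poly(Glu-Tyr) substrate and 10 μM ATP at pH 7.5. IC50 values came from non-linear regression fits.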
# Jak2 = biological target: T2, Jak2 (Homo sapiens, UniProt O60674); assay: Tyrosine kinase assay (Kinase-Glo or AlphaScreen), Jak2; settings: biochemical tyrosine kinase assay
# T2 construct: 6×His- or GST-tagged kinase domain fragments of the corresponding RTKs expressed in baculovirus system; host or cells: baculovirus system
# T2 sequence (O60674 849-1124 limits assumed, species assumed): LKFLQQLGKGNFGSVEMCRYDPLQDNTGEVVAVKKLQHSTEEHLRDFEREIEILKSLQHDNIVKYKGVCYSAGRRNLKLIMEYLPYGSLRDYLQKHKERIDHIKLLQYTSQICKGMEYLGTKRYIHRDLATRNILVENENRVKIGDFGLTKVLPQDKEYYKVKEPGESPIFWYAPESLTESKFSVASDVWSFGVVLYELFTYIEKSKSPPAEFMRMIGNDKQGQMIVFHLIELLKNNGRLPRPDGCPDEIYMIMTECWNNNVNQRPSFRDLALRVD
# Outline: as §1
# InsR = biological target: T3, InsR (Homo sapiens, UniProt P06213); assay: Tyrosine kinase assay (Kinase-Glo or AlphaScreen), InsR; settings: biochemical tyrosine kinase assay
# T3 construct: 6×His- or GST-tagged kinase domain fragments of the corresponding RTKs expressed in baculovirus system; host or cells: baculovirus system
# T3 sequence (P06213 1023-1298 limits assumed, species assumed): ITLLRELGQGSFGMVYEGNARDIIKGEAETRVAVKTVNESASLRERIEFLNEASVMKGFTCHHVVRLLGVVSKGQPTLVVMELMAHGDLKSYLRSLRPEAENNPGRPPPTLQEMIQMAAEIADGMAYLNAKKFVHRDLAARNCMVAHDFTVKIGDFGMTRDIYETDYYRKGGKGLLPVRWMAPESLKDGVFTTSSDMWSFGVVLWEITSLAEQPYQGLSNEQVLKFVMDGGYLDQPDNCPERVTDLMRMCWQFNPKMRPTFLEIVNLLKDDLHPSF
# Outline: as §1
# IGF1 receptor = biological target: T4, IGF1 receptor (Homo sapiens, UniProt P08069); assay: ELISA-based assay of IGF1 receptor autophosphorylation inhibition in cells; type: cell-based; settings: IGF1R phosphorylation inhibition in MCF7 cells
# T4 construct: MCF7 human breast cancer cells expressing IGF1 receptor; endogenous in cells; host or cells: MCF7 human breast cancer cells
# T4 sequence (P08069 741-1367 limits assumed): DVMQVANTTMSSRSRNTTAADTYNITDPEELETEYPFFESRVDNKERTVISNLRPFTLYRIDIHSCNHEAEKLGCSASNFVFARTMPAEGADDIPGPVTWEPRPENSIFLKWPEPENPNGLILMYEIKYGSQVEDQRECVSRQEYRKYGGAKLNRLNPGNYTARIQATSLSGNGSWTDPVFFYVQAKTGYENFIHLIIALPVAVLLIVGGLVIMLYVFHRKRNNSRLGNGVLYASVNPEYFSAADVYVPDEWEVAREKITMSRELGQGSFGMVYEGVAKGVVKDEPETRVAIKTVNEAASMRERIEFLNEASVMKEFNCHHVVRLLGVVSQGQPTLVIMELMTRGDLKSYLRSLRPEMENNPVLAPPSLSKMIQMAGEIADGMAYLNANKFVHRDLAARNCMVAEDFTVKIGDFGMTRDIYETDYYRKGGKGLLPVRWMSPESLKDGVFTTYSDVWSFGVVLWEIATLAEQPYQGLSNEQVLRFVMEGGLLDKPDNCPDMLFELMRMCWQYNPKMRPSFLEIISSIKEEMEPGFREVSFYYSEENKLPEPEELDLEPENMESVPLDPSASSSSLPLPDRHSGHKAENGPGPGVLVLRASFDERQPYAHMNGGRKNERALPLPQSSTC
# T4 sequence (P08069 31-736 partner limits assumed): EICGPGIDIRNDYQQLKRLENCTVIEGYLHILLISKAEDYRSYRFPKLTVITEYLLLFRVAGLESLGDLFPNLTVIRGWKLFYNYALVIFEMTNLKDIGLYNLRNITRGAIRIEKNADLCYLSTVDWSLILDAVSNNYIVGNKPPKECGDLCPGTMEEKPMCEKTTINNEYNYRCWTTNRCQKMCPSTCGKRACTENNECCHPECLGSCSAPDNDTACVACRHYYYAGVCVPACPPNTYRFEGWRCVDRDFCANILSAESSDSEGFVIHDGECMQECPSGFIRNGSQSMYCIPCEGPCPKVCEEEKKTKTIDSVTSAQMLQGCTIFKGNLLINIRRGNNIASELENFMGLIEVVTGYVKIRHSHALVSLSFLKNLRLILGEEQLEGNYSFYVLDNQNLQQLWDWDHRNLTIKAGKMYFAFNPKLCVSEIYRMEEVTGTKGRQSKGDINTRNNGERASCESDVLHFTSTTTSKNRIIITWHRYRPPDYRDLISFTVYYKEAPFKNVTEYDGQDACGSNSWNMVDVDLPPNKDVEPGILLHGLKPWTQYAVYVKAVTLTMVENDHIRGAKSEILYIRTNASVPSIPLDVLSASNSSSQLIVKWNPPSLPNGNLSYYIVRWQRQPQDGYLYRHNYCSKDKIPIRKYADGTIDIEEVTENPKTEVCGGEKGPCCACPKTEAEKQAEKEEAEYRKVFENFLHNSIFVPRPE
# Description: In another embodiment, compounds that interact with the IGF1R kinase domain are tested in a cell-based assay system. In accordance with this embodiment, cells expressing a full-length IGF1 receptor or a fragment thereof containing the IGF1R kinase domain, are contacted with a candidate or a control compound and the ability of the compound to block tyrosine kinase activity of IGF1R within a cell is determined. This assay may be used to screen a single compound or a large library of candidate compounds. Typically, the cells or cell lines are of mammalian origin and they can express the IGF1 receptor, or functional IGF1R kinase domain fragment, endogenously or be genetically engineered to express the IGF1R, or functional fragment thereof. The ability of the candidate compound to inhibit IGF1R kinase activity can be determined by methods known to those skilled in the art. For example, the inhibition can be determined by ELISA-type assay or Western blot analysis with cell lysates or immunoprecipitated IGF1R receptor using various anti-IGF1R and anti-phosphotyrosine antibodies.
# In general, cells expressing IGF1R are treated with modulators (i.e., inhibitors or activators) of IGF1R kinase activity and cell lysates are produced from these treated cells. IGF1Rs are isolated from the lysate by immunoprecipitation and analyzed for phosphotyrosine content. Alternatively, or in addition, cellular protein substrates phosphorylated by IGFR may be immunoprecipitated from the lysates and their degree of tyrosine phosphorylation determined.
# MCF7 human breast cancer cells expressing IGF1 receptor or an engineered […] fibroblast cell line NIH 3T3 overexpressing full-length IGF1R are an exemplary cellular models in which to perform such assays. Such cells may be maintained in DMEM medium supplemented with 10% fetal bovine serum (FBS), 4% L-glutamine, 1% antibiotic solution (penicillin-Streptomycin) in a humidified atmosphere of 95% air and 5% CO2 at 37° C. Confluent cells in T175 cell culture flasks are incubated overnight with serum-free DMEM medium. After the serum starvation step, the cells are detached and split into a standard 96-well cell culture plate (one T175 flask per plate, 30 μl of cell suspension per plate well). Tested inhibitors from their 10 mM stock solutions in DMSO are subsequently added at various concentrations in serum-free DMEM medium for 1 hour incubation at 37° C. in CO2-incubator; total DMSO concentration in both treated and control wells is adjusted to 1%. Cells are then stimulated for 10 minutes with 100 nM IGF-1 added in 30 μl DMEM. After treatment, cells are lysed by addition of 30 μl of 4× lysis buffer (phosphate-buffered saline (PBS), 2% Triton-X100, 1 mM phenylmethylsulphonyl fluoride (PMSF) and 8 mM activated orthovanadate), mixing and incubation for 15 minute at room temperature. To prepare assay plates, 96-well ELISA Plates (Pierce Chemical, Reacti-bind plates) were coated by goat-anti-rabbit Fc antiserum by adding 0.25 μg antiserum per well in 0.2M sodium bicarbonate buffer per well and incubating overnight at 4° C. After incubation, the plate is washed three times by PBS with 0.02% Tween-20, supplied with 25 ng/50 μl per well of anti-IGF1R antibody (C-20, Santa Cruz Biotechnology) and incubated for several hours to overnight. Prior to the addition of the prepared cellular lysates, the antibody solution is aspirated, wells washed with PBS and supplied with 25 μl per well of Starting Block buffer (Pierce Chemical).
# To measure tyrosine phosphorylation of the beta-subunits of the IGF1R, 25-50 μl of the lysates are transferred from the stimulation plate to the wells of the prepared assay plate and incubated overnight at 4° C. The wells are washed with PBS with 0.02% Tween-20, incubated with 50 μl of 1:3000 dilution of anti-phosphotyrosine 4G10-HRP antibody conjugate (Upstate Biotechnology) for 2 hours at room temperature and washed again. […]
# IGF1R tyrosine kinase = biological target: T5, IGF1R tyrosine kinase (Homo sapiens, UniProt P08069); assay: IGF1R tyrosine kinase assay (Kinase-Glo ATP depletion or PT66/PT100 AlphaScreen); settings: biochemical tyrosine kinase assay
# T5 construct: 6×His- or GST-tagged kinase domain fragments of the corresponding RTKs expressed in baculovirus system; host or cells: baculovirus system
# T5 sequence (P08069 999-1274 limits assumed): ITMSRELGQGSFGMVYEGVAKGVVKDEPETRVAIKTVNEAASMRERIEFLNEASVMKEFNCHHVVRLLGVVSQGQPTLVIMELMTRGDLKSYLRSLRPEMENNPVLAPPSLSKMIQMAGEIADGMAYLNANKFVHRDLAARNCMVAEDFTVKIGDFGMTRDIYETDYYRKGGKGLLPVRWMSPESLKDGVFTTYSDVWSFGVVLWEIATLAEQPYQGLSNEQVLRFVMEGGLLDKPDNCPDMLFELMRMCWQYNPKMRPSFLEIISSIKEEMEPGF
# Outline: as §1
# [1] = tested on: CHO (chinese hamster ovary); assay: Cell proliferation inhibition, Cell Titer-Glo, CHO; type: cell-based; settings: Cricetulus griseus; cell proliferation assay, CHO cells
# Description: (§2) IGF1R and other tyrosine kinase inhibitors can inhibit the proliferation of certain cancer cell lines indicating their possible therapeutic utility for treating the corresponding cancer types. Cancer cell lines of interest and control normal lines, including CHO, HEK293, BA/F3, MM1, H929, COLO205, PC3, DU145, MCF7, Panc1, ACHN, Hep G2, H460, K562, TT, U87-G, CAOV-3, SK-MEL5, Karpas 299, are plated in white, clear-bottomed 384-well cell culture plates at 2500-5000 cells per well and supplied with dilutions of tested compounds After a desired period of time (typically 3 days), the number of viable cells is quantitated by using Cell Titer-Glo Luminescent Cell Viability Assay (Promega), a cell proliferation assay system based on detection of total amount of ATP present as a measure of cell metabolic activity. The plated cells are mixed with the Cell Titer-Glo developing reagent and counted in a luminescence multiwell plate reader according to the standard manufacturer's protocol to generate IC50 curves for cell proliferation inhibition.
# (§3) IGF1R and other tyrosine kinase inhibitors can inhibit the proliferation of certain cancer cell lines indicating their possible therapeutic utility for treating the corresponding cancer types. Cancer cell lines of interest and control normal lines, including CHO, HEK293, BA/F3, COLO205, PC3, DU145, MCF7, Panc1, ACHN, Hep G2, H460, K562, TT, U87-MG, CAOV-3, SK-MEL5, Karpas 299 and human multiple myeloma cell lines H929, MM1s, MM1r, UTMC2, CPM2, KMS11, My5, KMS12PE, My7, JJN3, KMS18, U266, SKMM2, RPMI-8226 are plated in white, clear-bottomed 384-well cell culture plates at 2500-5000 cells per well and supplied with dilutions of tested compounds After a desired period of time (typically 3 days), the number of viable cells is quantitated by using Cell Titer-Glo Luminescent Cell Viability Assay (Promega), a cell proliferation assay system based on detection of total amount of ATP present as a measure of cell metabolic activity. The plated cells are mixed with the Cell Titer-Glo developing reagent and counted in a luminescence multiwell plate reader according to the standard manufacturer's protocol to generate IC50 curves for cell proliferation inhibition. Results are typically reported as percent of growth (% viability =(OD72h(compound)−ODday0))/(OD72h(no compound)−ODday0). Alternatively, viable cells are quantitated by using the conventional colorimetric MTT assay. The MTT assay is based on the cleavage of the yellow tetrazolium salt MTT to purple formazan crystal by metabolic active cells. The formazan is then solubilized, and the concentration determined by optical density at 570 nm. The cells plated and incubated with a compound as described above are supplemented with the solution of MTT and incubated for 2-3 hours. The growth medium is removed and dimethyl sulfoxide is added into each well to dissolve the formazan. The absorbance is measured on an ELISA plate reader with a test wavelength of 570 nm and a background subtraction wavelength of 630 nm to obtain sample signal (OD570-OD630). […] The results are reported in terms of IC50 value for a particular compound and a cell line in the standard 3-day proliferation assay using Cell Titer-Glo. […] The results are reported in terms of IC50 value for a particular compound and a cell line in the standard 3-day proliferation assay using MTT assay.
# H929 (multiple myeloma) = assay: Cell proliferation inhibition, Cell Titer-Glo, H929; type: cell-based; settings: Homo sapiens, NCI-H929; cell proliferation assay, H929 cells
# Description: as §2, §3
Structure (SMILES),IC50 (Alk),IC50 (Jak2),IC50 (InsR),IC50 (IGF1 receptor),IC50 (IGF1R tyrosine kinase),IC50 [1],IC50 (H929 (multiple myeloma))
CN1CCC(N2C(=O)c3cc4nc(-c5c(NCC(O)COc6ccccc6)cc[nH]c5=O)[nH]c4cc3C2=O)CC1 (centres unmarked) [compound 23],5 to 15 µM,0.5 to 5 µM,0.5 to 5 µM,5 to 15 µM,0.5 to 5 µM,,
CN1CCN(CCN2C(=O)c3cc4nc(-c5c(NC[C@@H](O)c6cccc(Cl)c6)cc[nH]c5=O)[nH]c4cc3C2=O)CC1 [compound 20],0.5 to 5 µM,0.5 to 5 µM,0.5 to 5 µM,> 15 µM,0.5 to 5 µM,,
Cc1ccc(Cl)c(OC[C@H](O)CNc2cc[nH]c(=O)c2-c2nc3cc4c(cc3[nH]2)C(=O)N(C2CCN(C)CC2)C4)c1F [compound 158],5 to 15 µM,< 0.5 µM,< 0.5 µM,,< 0.5 µM,> 15 µM,5 to 15 µM
O=C1c2cc3nc(-c4c(NC[C@@H](O)c5cccc(Cl)c5)cc[nH]c4=O)[nH]c3cc2C(=O)N1CC1CCN(CCO)CC1 [compound 13],0.5 to 5 µM,0.5 to 5 µM,< 0.5 µM,0.5 to 5 µM,< 0.5 µM,,
CN1CCC(N2Cc3cc4nc(-c5c(NC[C@@H](O)COc6cccc(C(F)(F)F)c6Cl)cc[nH]c5=O)[nH]c4cc3C2=O)CC1 [compound 154],> 15 µM,< 0.5 µM,< 0.5 µM,,< 0.5 µM,> 15 µM,5 to 15 µM
CCc1cc2c(cc1OC[C@H](O)CNc1cc[nH]c(=O)c1-c1nc3cc4c(cc3[nH]1)C(=O)N(C1CCN(C)CC1)C4)OCO2 [compound 156],0.5 to 5 µM,< 0.5 µM,< 0.5 µM,,< 0.5 µM,> 15 µM,5 to 15 µM
CN1CCC(N2Cc3cc4nc(-c5c(N[C@@H](CO)Cc6ccccc6)cc[nH]c5=O)[nH]c4cc3C2=O)CC1 [compound 160],0.5 to 5 µM,0.5 to 5 µM,< 0.5 µM,,0.5 to 5 µM,> 15 µM,5 to 15 µM
CN1CCC(N2C(=O)c3cc4nc(-c5c(NC[C@@H](O)COc6ccc(F)cc6)cc[nH]c5=O)[nH]c4cc3C2=O)CC1 [compound 21],0.5 to 5 µM,0.5 to 5 µM,0.5 to 5 µM,5 to 15 µM,0.5 to 5 µM,,
